Assay results taken from patent US8304539B2, “Fused heteroaryl modulators of glucocorticoid receptor, AP-1, and/or NF-κB activity and use thereof” (Bristol-Myers Squibb Company, priority 2008, dated 2012).

Test system: AP-1
Assay: Cellular transrepression assay (AP-1 luciferase reporter in A549 cells, PMA activated)
Type: cell-based
Conditions: 7 h, 10 ng/ml PMA; for EC50: read-out: AP-1 (EC50, nM) (measured in cellular transrepression assay); for Emax: read-out: AP-1 Max % inhibition (measured in cellular transrepression assay)
Protocol: Cellular Transrepressional Assay
To measure the ability of test molecules to inhibit AP-1 induced transcriptional activity we utilized an A549 cell which was stably transfected with a plasmid containing 7×AP-1 DNA binding sites (pAP-1-Luc plasmid, Stratagene Co. La Jolla, Calif.) followed by the gene for luciferase. Cells were activated with 10 ng/ml of phorbol myristic acid (PMA) plus or minus test molecules for 7 hours. After 7 hours a luciferase reagent was added to measure luciferase enzymatic activity in the cell. After a 10 minute incubation of luciferase reagent with cells, luminescence was measured in a TopCount luminescence counter. Repression of AP-1 activity was calculated as the percentage decrease in the signal induced by PMA alone. Test molecules were analyzed in the concentration range from 0.1 nM to 40 μM. EC50s were determined by using standard curve fitting methods such as Excel fit (Microsoft Co.). An EC50 is the test molecule concentration at which there is a 50% repression of the maximal inhibition of transcription, i.e. a 50% reduction of AP-1 activity.

`CC(C)(C(=O)Nc1nncs1)C1c2ccc(Cl)nc2Oc2nc(-c3ccc(C(=O)N4CCOCC4)cc3)ccc21` (stereo not shown) [Example 60] gave an EC50 of 10.7 nM and an Emax of 57.5%.
For `Cc1ccc2c(n1)Oc1nc(-c3ccc(C(=O)N(C)C4CC4)cc3)ccc1[C@H]2C(C)(C)C(=O)Nc1nncs1` [Example 41], the EC50 was 359 nM and the Emax was 39.2%.
`Cc1ccc2c(n1)Oc1nc(-c3ccc(C(=O)N4CCOCC4)c(F)c3)ccc1[C@H]2C(C)(C)C(=O)Nc1nncs1` [Example 42] gave an EC50 of 228 nM and an Emax of 43.6%.
Work on `CC(C)(C(=O)Nc1nncs1)C1c2cccnc2Oc2nc(-c3ccc(C(=O)N4CCOCC4)cc3)ccc21` (stereo not shown) [Example 5] yielded an EC50 of 142 nM and an Emax of 33.9%.
For `Cc1ccc2c(n1)Oc1nc(-c3ccc(C(=O)N(C)C)cc3)ccc1[C@H]2C(C)(C)C(=O)Nc1nncs1` [Example 11], the EC50 was 90.1 nM and the Emax was 45.2%.
`CC(=O)c1ccc(-c2ccc3c(n2)Oc2nc(C)ccc2C3C(C)(C)C(=O)Nc2nncs2)cc1` (stereo not shown) [Example 17] was tested, and the EC50 was 72.8 nM and the Emax was 42.4%.
For `CN(C)C(=O)c1ccc(-c2ccc3c(n2)Oc2nc(N(C)C)ccc2C3C(C)(C)C(=O)Nc2nncs2)cc1` (stereo not shown) [Example 67, 4-(8-(dimethylamino)-5-(1,1-dimethyl-2-oxo-2-(1,3,4-thiadiazol-2-ylamino)ethyl)-5H-pyrido[3′,2′:5,6]pyrano[2,3-b]pyridin-2-yl)-N,N-dimethylbenzamide], the EC50 was 53 nM and the Emax was 57.9%.
`Cc1ccc2c(n1)Oc1nc(-c3ccc(C(=O)N4CCOCC4)cc3)ccc1C2C(C)(C)C(=O)Nc1nncs1` (stereo not shown) [Example 15] gave an EC50 of 460 nM and an Emax of 47.4%.
In the case of `CN(C)C(=O)c1ccc(-c2ccc3c(n2)Oc2nc(N(C)C)ccc2C3C(C)(C)C(=O)Nc2nncs2)cc1F` (stereo not shown) [Example 73, 4-(8-(dimethylamino)-5-(1,1-dimethyl-2-oxo-2-(1,3,4-thiadiazol-2-ylamino)ethyl)-5H-pyrido[3′,2′:5,6]pyrano[2,3-b]pyridin-2-yl)-2-fluoro-N,N-dimethylbenzamide], the EC50 is reported as 194 nM and the Emax is reported as 43.4%.
With `CN(C)C(=O)c1ccc(-c2ccc3c(n2)Oc2nc(Cl)ccc2C3C(C)(C)C(=O)Nc2nncs2)cc1` (stereo not shown) [Example 54, 4-(8-chloro-5-(1,1-dimethyl-2-oxo-2-(1,3,4-thiadiazol-2-ylamino)ethyl)-5H-pyrido[3′,2′:5,6]pyrano[2,3-b]pyridin-2-yl)-N,N-dimethylbenzamide] the EC50 was 33.8 nM and the Emax was 59.2%.
Work on `CN(C)C(=O)c1ccc(-c2ccc3c(n2)Oc2nc(Cl)ccc2C3C(C)(C)C(=O)Nc2nnc(C(=O)NC3CC3)s2)cc1` (stereo not shown) [Example 62] yielded an EC50 of 352 nM and an Emax of 59.5%.
`CCC(=O)c1ccc(-c2ccc3c(n2)Oc2nc(C)ccc2[C@@H]3C(C)(C)C(=O)Nc2nncs2)cc1` [Example 76] gave an EC50 of 119 nM and an Emax of 48.5%.
`CCOC(=O)c1nnc(NC(=O)C(C)(C)[C@H]2c3ccc(C)nc3Oc3nc(-c4ccc(C(=O)N(C)CC)cc4)ccc32)s1` [Example 32] showed an EC50 of 176 nM and an Emax of 74.3%.
Compound `Cc1ccc2c(n1)Oc1nc(-c3ccc(C(=O)N4CCOCC4)cc3)ccc1[C@H]2C(C)(C)C(=O)Nc1nnc(C(=O)NC2CCOCC2)s1` [Example 88, 5-((2-methyl-2-((5S)-2-methyl-8-(4-(4-morpholinylcarbonyl)phenyl)-5H-pyrano[2,3-b:6,5-b′]dipyridin-5-yl)propanoyl)amino)-N-(tetrahydro-2H-pyran-4-yl)-1,3,4-thiadiazole-2-carboxamide] has an EC50 of 56.9 nM and an Emax of 32.9%.
Work on `CCN(C)C(=O)c1ccc(-c2ccc3c(n2)Oc2nc(C)ccc2[C@@H]3C(C)(C)C(=O)Nc2ncc(C)s2)cc1` [Example 33] yielded an EC50 of 449 nM and an Emax of 50.8%.
`Cc1ccc2c(n1)Oc1nc(N(C)C)ccc1C2C(C)(C)C(=O)Nc1nncs1` (stereo not shown) [Example 20, 2-(2-(dimethylamino)-8-methyl-5H-pyrido[3′,2′:5,6]pyrano[2,3-b]pyridin-5-yl)-2-methyl-N-1,3,4-thiadiazol-2-ylpropanamide] gave an EC50 of 198 nM and an Emax of 27.9%.
`CCN(C)C(=O)c1ccc(-c2ccc3c(n2)Oc2nc(N(C)C)ccc2C3C(C)(C)C(=O)Nc2nnc(C)s2)cc1` (stereo not shown) [Example 71] was tested, and the EC50 was 67.2 nM and the Emax was 48.6%.
`Cc1ccc2c(n1)Oc1nc(-c3ccc(C(=O)N4CCCC4)cc3)ccc1C2C(C)(C)C(=O)Nc1nncs1` (stereo not shown) [Example 16] gave an EC50 of 541 nM and an Emax of 40.2%.
With `CCN(C)C(=O)c1ccc(-c2ccc3c(n2)Oc2nc(C)ccc2[C@@H]3C(C)(C)C(=O)Nc2nncs2)cc1F` [Example 21] the EC50 was 166 nM and the Emax was 49.7%.
In the case of `CC(C)Sc1ccc2c(n1)Oc1nc(-c3ccc(C(=O)N(C)C)cc3)ccc1C2C(C)(C)C(=O)Nc1nncs1` (stereo not shown) [Example 55], the EC50 is reported as 354 nM and the Emax is reported as 30.5%.
`CN(C)C(=O)c1ccc(-c2ccc3c(n2)Oc2ncccc2C3C(C)(C)C(=O)Nc2nncs2)cc1` (stereo not shown) [Example 3, 4-(5-(1,1-dimethyl-2-oxo-2-(1,3,4-thiadiazol-2-ylamino)ethyl)-5H-pyrido[3′,2′:5,6]pyrano[2,3-b]pyridin-2-yl)-N,N-dimethylbenzamide] gave an EC50 of 189 nM and an Emax of 38.6%.
In the case of `CCN(C)C(=O)c1ccc(-c2ccc3c(n2)Oc2nc(C)ccc2[C@@H]3C(C)(C)C(=O)Nc2nnc(C(=O)NC3CCC3)s2)cc1` [Example 49], the EC50 is reported as 98 nM and the Emax is reported as 66.3%.
`CCN(C)C(=O)c1ccc(-c2ccc3c(n2)Oc2nc(C)ccc2C3C(C)(C)C(=O)Nc2nncs2)cc1F` (stereo not shown) [Example 18] gave an EC50 of 52 nM and an Emax of 47.8%.
`CCN(C)C(=O)c1ccc(-c2ccc3c(n2)Oc2nc(C)ccc2[C@@H]3C(C)(C)C(=O)Nc2nccs2)cc1` [Example 34] was tested, and the EC50 was 14.6 nM and the Emax was 64.9%.
In the case of `Cc1nnc(NC(=O)C(C)(C)C2c3ccc(-c4ccc(C(=O)N(C)C)cc4)nc3Oc3nc(N(C)C)ccc32)s1` (stereo not shown) [Example 68, 4-(8-(dimethylamino)-5-(1,1-dimethyl-2-((5-methyl-1,3,4-thiadiazol-2-yl)amino)-2-oxoethyl)-5H-pyrido[3′,2′:5,6]pyrano[2,3-b]pyridin-2-yl)-N,N-dimethylbenzamide], the EC50 is reported as 95.3 nM and the Emax is reported as 46.3%.
In the case of `CC[S+]([O-])c1ccc(-c2ccc3c(n2)Oc2nc(C)ccc2C3C(C)(C)C(=O)Nc2nncs2)cc1` (stereo in doubt) [Example 81, 2-((5S)-2-(4-(ethylsulfinyl)phenyl)-8-methyl-5H-pyrido[3′,2′:5,6]pyrano[2,3-b]pyridin-5-yl)-2-methyl-N-1,3,4-thiadiazol-2-ylpropanamide], the EC50 is reported as 368 nM and the Emax is reported as 28.7%.
`Cc1ccc2c(n1)Oc1nc(-c3ccc(C(=O)N4CCOCC4)cc3)ccc1[C@H]2C(C)(C)C(=O)Nc1nnc(C2CC2)s1` [Example 93, N-(5-cyclopropyl-1,3,4-thiadiazol-2-yl)-2-methyl-2-((5 S)-2-methyl-8-(4-(4-morpholinylcarbonyl)phenyl)-5H-pyrido[3′,2′:5,6]pyrano[2,3-b]pyridin-5-yl)propanamide] was tested, and the EC50 was 167 nM and the Emax was 44.3%.
Work on `Cc1ccc2c(n1)Oc1nc(-c3ccc(C(=O)N(C)C)cc3)ccc1[C@H]2C(C)(C)C(=O)Nc1nnc(C)s1` [Example 12] yielded an EC50 of 297 nM and an Emax of 26.6%.
Compound `Cc1nnc(NC(=O)C(C)(C)C2c3ccc(Cl)nc3Oc3nc(-c4ccc(C(=O)N5CCOCC5)cc4)ccc32)s1` (stereo not shown) [Example 61] has an EC50 of 47.5 nM and an Emax of 49.8%.
`CCN(C)C(=O)c1ccc(-c2ccc3c(n2)Oc2nc(C)ccc2[C@@H]3C(C)(C)C(=O)Nc2nncs2)cc1` [Example 22] gave an EC50 of 81.9 nM and an Emax of 59.3%.
Compound `Cc1ccc2c(n1)Oc1nc(-c3ccc(C(C)(C)O)cc3)ccc1[C@H]2C(C)(C)C(=O)Nc1nncs1` [Example 89] has an EC50 of 21 nM and an Emax of 46.9%.
For `CCN(C)C(=O)c1ccc(-c2ccc3c(n2)Oc2ncccc2C3C(C)(C)C(=O)Nc2nncs2)cc1` (single isomer, unassigned) [Example 9], the EC50 was 66.2 nM and the Emax was 55.4%.
Compound `Cc1ccc2c(n1)Oc1nc(-c3ccc([S+](C)[O-])cc3)ccc1C2C(C)(C)C(=O)Nc1nncs1` [Example 36, (4-((5S)-5-(1,1-dimethyl-2-oxo-2-(1,3,4-thiadiazol-2-ylamino)ethyl)-8-methyl-5H-pyrido[3′,2′:5,6]pyrano[2,3-b]pyridin-2-yl)phenyl)(methyl)sulfoniumolate] has an EC50 of 526 nM and an Emax of 26.9%.
`CCN(C)C(=O)c1ccc(-c2ccc3c(n2)Oc2ncccc2C3C(C)(C)C(=O)Nc2nncs2)cc1` (stereo not shown) [Example 4] showed an EC50 of 197 nM and an Emax of 46.6%.
Compound `CCN(C)C(=O)c1ccc(-c2ccc3c(n2)Oc2nc(C)ccc2[C@@H]3C(C)(C)C(=O)Nc2nnc(C)s2)cc1` [Example 35] has an EC50 of 175 nM and an Emax of 45%.
In the case of `Cc1ccc2c(n1)Oc1nc(-c3ccc(OC(C)C)cc3)ccc1[C@H]2C(C)(C)C(=O)Nc1nncs1` [Example 30], the EC50 is reported as 41.6 nM and the Emax is reported as 34.6%.
Compound `CCN(C)C(=O)c1ccc(-c2ccc3c(n2)Oc2nc(C)ccc2[C@@H]3C(C)(C)C(=O)Nc2nnc(C(=O)NC3CC3)s2)cc1` [Example 44] has an EC50 of 589 nM and an Emax of 60.8%.
In the case of `CCN(C)C(=O)c1ccc(-c2ccc3c(n2)Oc2nc(Cl)ccc2C3C(C)(C)C(=O)Nc2nnc(C)s2)cc1` (stereo not shown) [Example 58, 4-(8-chloro-5-(1,1-dimethyl-2-((5-methyl-1,3,4-thiadiazol-2-yl)amino)-2-oxoethyl)-5H-pyrido[3′,2′:5,6]pyrano[2,3-b]pyridin-2-yl)-N-ethyl-N-methylbenzamide], the EC50 is reported as 58.1 nM and the Emax is reported as 57.7%.
